Here are results for 87 compounds from a melting point compilation (Tetko et al.; mined from patent text by program, amines drawn as free bases though some values may be those of a salt).

One may read the melting point as the temperature of the solid-liquid transition.

Structures are written as SMILES. A value given as a limit tells only on which side of the number the result lay.

As for `CCc1nc(CO)c(CO)[nH]1`, the melting point lay in the range of 173 to 174 °C.
Regarding `CN1CCNS(=O)(=O)c2cc(Oc3ccccc3)ccc21`, the melting point was in the range of 128 to 131 °C.
The compound `CCOC(=O)CN(C(=O)CNC(=O)Nc1cccc(C)c1)c1ccccc1` showed a melting point of 181 °C.
For `COc1ccc(Nc2nc(Nc3ccc(OC)c(Cl)c3)nc(NC3CCCCCC3)n2)cc1Cl` the value was 183 °C; for `NC(=NCC(F)(F)F)Nc1ccnc(CCCCO)n1`, 135 to 136 °C.
The compound `COC(OC)[C@@H]1CCCN1C(=O)[C@@H]1CCCN1C(=O)C[C@H]1CCc2ccccc2C1` displayed a melting point of 103 to 106 °C.
`COc1cc([N+](=O)[O-])c(CC(=O)O)c(Cl)c1O` had a melting point of 231 °C.
With `COc1cncc2nc(SCc3ccccc3)nn12`, the melting point is 114 to 116 °C.
In turn, `Cc1ccc(S(C)(=O)=O)c(S(=O)(=O)NC(C)(C)C)c1` displayed a melting point of 129 to 133 °C.
Compound `O=c1[nH]c(=O)n(C2C=CC(CBr)O2)cc1C=CBr` (configuration not stated) yielded a melting point greater than 150 °C.
`O=C(CO)N[C@H]1CC[C@H](CCN2CCC(c3cccc4c3CCO4)CC2)CC1` returned a melting point of 154 °C.
On to `CC(=O)OCC(CCc1nc2nc(N)nc(SCCC(=O)c3ccccc3)c2[nH]1)COC(C)=O`, for which the melting point was in the range of 130 to 131 °C.
The result for `C=CCOc1ccc2cc(S(N)(=O)=O)sc2c1` reads 101 to 102 °C.
`O=C(NCC12CC3CC(CC(C3)C1)C2)c1cc(-c2ncccc2OCc2nnn[nH]2)ccc1Cl` registered a melting point of 122 to 126 °C.
Compound `O=C(O)c1ccccc1-c1cc(-c2cccc(C(F)(F)F)c2)no1` displayed a melting point of 175 to 176 °C.
Turning to `CC1(C)OC(=S)Nc2ccc(-c3cc(C#N)ccc3F)cc21`, the melting point was 250 to 251 °C.
The result for `CC(=O)c1[nH]c2cc(Cl)cc(Cl)c2c1C` reads 178 °C; that for `O[C@@H]1c2cc3c(cc2CC[C@H]1NCCc1ccccc1)CCO3` (relative stereo), 144 to 148 °C.
As to `COC(=O)OC(Cc1ccc(OCCc2nc(-c3ccccc3)oc2C)cc1)C(N)=O` (configuration not stated), the melting point was in the range of 171 to 174 °C.
For `CCCc1ccc(OC)c(-c2csc(N)n2)c1` the value was 84 °C.
For `O=C(C1CC1)N1CCC2(CC1)OCCO2`, the melting point lay within 72 to 74 °C.
Compound `CC(=O)OC(CF)c1ccccc1S(=O)(=O)NC(C)(C)C` (configuration not stated) yielded a melting point of 118 to 119 °C.
For `COCOc1c(NC(=O)N(c2ccccc2)C2CCC(NC(=O)OCc3ccccc3)CC2)cc(OC)cc1C(C)(C)C` (configuration not stated) the value was 145 to 154 °C; for `CN1C(=O)C(C(=O)Nc2ccc(F)cc2)S(=O)(=O)c2ccc(Cl)cc21` (configuration not stated), 234 to 236 °C.
The result for `Cn1c(=O)nc(-c2ccccc2)c2cc3c(cc21)OCO3` reads 253 to 255 °C.
The result for `CCC(C#N)=C1CCN(c2ccc(N3C[C@H](CNC(C)=O)OC3=O)cc2F)CC1` reads 185 to 186 °C.
In turn, `CCCCC(=O)Nc1ccc(Cl)cc1C(=O)OC` had a melting point of 48 to 49 °C.
For the compound `CC1(C)[C@@H](C(=O)Nc2cc(C(F)(F)F)n[nH]2)[C@@H]1c1ccc(S(N)(=O)=O)cc1` (relative stereo), the melting point is 210 to 213 °C.
`COc1cccc(Cc2cc3cccc(-c4cccc(C(=O)NCCN5CCCC5)c4)c3o2)c1` registered a melting point of 101 to 102 °C.
As for `Cc1ccc(CN2CC=C(/C=C/c3cccc(Cl)c3)CC2)cc1`, the melting point is 86 to 88 °C.
For `O=C(Nc1ccc(F)cc1)O[C@@H]1CN=C(c2ccccc2)O[C@H]1c1ccccc1` (racemic), the melting point stood at 158 °C.
The result for `CC12CCC3c4cc(N)c(OCc5ccccc5)cc4CCC3C1CCC2=O` (configuration not stated) reads 205 to 207 °C; that for `CCCCCCCCCCCCCCCCCCSC(C)(C)C(=O)CC(=O)Nc1ccccc1OC`, 59 to 61 °C.
On to `CCOC(=O)c1cn(CC)c2c(F)c(C(=O)C=CN(C)C)c(F)cc2c1=O`, for which the melting point lay in the range of 175 to 177 °C.
Consider `COc1ccc2c(=O)nc(-c3ccccn3)sc2c1`, for which the melting point is 200 to 202 °C.
For `CN1N=C(Br)C2N=C(Cl)N=C(O)C21` (configuration not stated) the value was 260 to 262 °C; for `CC(C)(C)CCNC(=O)N(CCCl)N=O`, 43 to 43.5 °C; for `O=C(O)c1cc(C(c2ccccc2)c2ccccc2)ccn1`, 172 to 177 °C.
For the compound `O=C1NC(=O)C(Nc2cccc(CCOCc3ccc4ccccc4n3)c2)S1` (configuration not stated), the melting point was 167 to 168 °C.
`Cc1cc(C(C)(C)C)c(O)c(S(N)(=O)=O)c1` yielded a melting point of 114 to 116 °C.
As for `O=S(=O)(Nc1ccc2c(OCc3ccc(-c4ccccc4)cc3Cl)cccc2c1)C(F)(F)F`, the melting point was 131 to 134 °C.
Consider `CCCn1c(=O)c2c(nn3cc[nH]c23)n(Cc2ccccc2)c1=O`, for which the melting point lay within 290 to 292 °C.
In turn, `O=C(c1ccccc1SSc1ccccc1C(=O)N1CCOCC1)N1CCOCC1` gave a melting point of 103 to 110 °C.
In turn, `COc1cccc2c1N(S(=O)(=O)c1ccc(-c3ccc(F)cc3F)cc1)C(C(=O)NCc1ccc(C(=O)O)cc1)C2` (configuration not stated) yielded a melting point of 218 °C.
Regarding `CC(C)(C)OC(=O)C1CCCN(C(=O)OCc2ccccc2)N1C(=O)C(Br)CCBr` (configuration not stated), the melting point fell in the range of 81 to 82 °C.
With `COc1ccc(CN2C(=O)c3c(-c4ccccc4Cl)cc4c(c3C2=O)c2cc(OC)ccc2n4CCC(O)CO)c(OC)c1` (configuration not stated), the melting point lay within 126 to 131 °C.
The result for `Cc1cc(-c2cccc(C#N)c2)c(C(=O)NCCN2CCOCC2)c(C)n1` reads 158 to 161 °C; that for `COc1cc2ccc(-c3cc(C(=O)O)cs3)cc2cc1C12CC3CC(CC(C3)C1)C2`, 314 to 316 °C; that for `Cc1cc(-c2cnn3c(C(F)(F)F)cc(-c4ccc(F)c(Cl)c4)nc23)ccn1`, 292 °C.
For `COC(=O)c1ccc2nn(-c3cc(C(C)(C)CC(C)(C)C)cc(C(C)(C)c4ccccc4)c3O)nc2c1` the value was 141 to 143 °C.
The result for `CCn1cc(C(=O)NN)c(=O)c2ccc(-c3ccccc3)cc21` reads 243 to 244 °C; that for `COc1ccc(N2CCN(c3c(C)c(C)c4c(c3C)CC(C)(CC#N)O4)CC2)cc1` (configuration not stated), 161 to 163 °C.
Turning to `O=Cc1cc(OCCCC(=O)N(CCO)CCCCC2CCCC2)ccc1[N+](=O)[O-]`, the melting point is 107 to 108 °C.
Compound `COC(=O)c1cn2c3c(c(N4CCCC4)c(F)cc3c1=O)CCN2C` returned a melting point of 203 to 206 °C.
For `CCCCCCCNC(=O)c1cnc2cccc(C)n2c1=O` the value was 118 to 120 °C; for `c1ccc2c(c1)CC(CCN1CCN(c3cccc4[nH]ccc34)CC1)C2`, 146 to 147 °C; for `COc1ccc(CNc2cc3c(Nc4ccc5c(cnn5Cc5cccc(F)c5)c4)ncnc3cn2)cc1`, 196 to 198 °C.
Compound `O=C(NC(Cc1ccc([N+](=O)[O-])cc1)C(=O)C(F)(F)F)c1ccccc1` (configuration not stated) returned a melting point of 175 °C.
The compound `CCCCn1c(=O)c2nc(-c3ccc(/C=C/C(=O)O)cc3)[nH]c2n(C)c1=O` had a melting point greater than 300 °C.
Compound `CC(C)n1nc(-c2c(-c3ccccc3)nn3ccc(C(=O)N4CCCC4)cc23)ccc1=O` had a melting point of 189 to 190 °C.
In the case of `O=C(CN1CCOCC1)Nc1ccc(-c2n[nH]c3c2Cc2ccccc2-3)cc1`, the melting point is 291 to 292 °C.
`C=C(C)C(=O)OCCOC(=O)c1ccc2c(c1)C(=O)N(OS(=O)(=O)c1ccc(C)cc1)C2=O`: the melting point amounted to 113 °C.
Consider `COc1ccc2[nH]c(C(=O)c3ccccc3)cc2c1`, for which the melting point is 159 to 161 °C.
Consider `COc1cc(OC)nc(OC(C(=O)O)C(C)(Oc2ccccc2)c2ccccc2)n1` (configuration not stated), for which the melting point was 50 to 55 °C.
Consider `Cc1ncsc1CCSc1ccnc(CSc2nc3ccccc3[nH]2)c1C`, for which the melting point was 150 to 152 °C.
Turning to `Cc1ccc(OC(=O)CCCC(=O)OOC(C)(C)C)cc1`, the melting point lay within 50 to 55 °C.
With `CCOc1cc2c(cc1OC(C)=O)C(=O)CC1C2CCC2(C)C(OC(C)=O)CCC12` (configuration not stated), the melting point worked out at 195 °C.
Turning to `CCCCCCC(C)(C)c1cc(OC)c(C2=C[C@@H]3CC[C@@]2(CO)C3(C)C)c(OC)c1`, the melting point lay within 49 to 51 °C.
`O=C1c2ccc(NC(=O)C3CCCC3)cc2C(=O)c2cc(NC(=O)C3CCCC3)ccc21` yielded a melting point of 281 °C.
For the compound `CNC(=O)c1c(C)nc(C)n1Cc1ccc2oc(-c3ccccc3NS(=O)(=O)C(F)(F)F)c(Br)c2c1`, the melting point lay within 208 to 210 °C.
Compound `COc1cc(C2CCC(c3cc(OC)c(OC)c(OC)c3)C2N)cc(OC)c1OC` (configuration not stated) yielded a melting point of 117 to 119 °C.
In turn, `CC(c1oc2ccccc2c(=O)c1-c1ccccc1)n1nc(-c2ccc3cn[nH]c3c2)c2c(N)ncnc21` (configuration not stated) registered a melting point of 176 to 178 °C.
Compound `CC(C)(C)CC(C)(C)Nc1nc(N2CC3CCC(CC3)C2)nc(C(C)(C)C)n1` registered a melting point of 164 to 168 °C.
`CCCCOc1c(N(C)C(=O)OC(C)(C)C)n(CC2CC2)c(=O)c2ccc(OCC(N)=O)cc12` showed a melting point of 209 to 210 °C.
Compound `COC(C)=CC(=O)Nc1cccc(C)c1` yielded a melting point of 106 °C.
On to `CC1(C)CC(=O)Oc2cc(O)ccc21`, for which the melting point was 84 to 85 °C.
For `COc1ccc(-c2cn[nH]c2N)cc1OC` the value was 143 to 146 °C; for `Cc1cc(O)cc2c1CCC2(C)C`, 80 to 81 °C.
`CC(=O)Oc1ccccc1CC1c2ccccc2Oc2ccccc21` registered a melting point of 77 to 79 °C.
Consider `O=C1Oc2ccccc2C1(Cc1ccccc1)Cn1cncn1` (configuration not stated), for which the melting point is 150 °C.
In the case of `O=C1Cc2cc(C(=O)O)ccc2N1`, the melting point was greater than 300 °C.
Turning to `CSC(=O)c1c(O)ccc2ccccc12`, the melting point fell in the range of 111 to 112 °C.
The result for `N#Cc1cnn(-c2c(Cl)cc(Cl)cc2Cl)c1C=O` reads 152 °C; that for `O=c1oc(-c2ccsc2)cc(O)c1SCc1ccccc1`, 150 to 151 °C.
With `O=S(=O)(Nc1ccc(C(O)(C(F)(F)F)C(F)(F)F)cc1)c1ccccc1`, the melting point is 117 to 118 °C.
For `CSc1nnc2c(=O)c3ccc(C)cc3ccn12` the value was 178 to 179 °C; for `Cc1nc(-c2ccc(C#N)cc2)sc1C(=O)N1CO[C@@](Cn2cncn2)(c2ccc(F)cc2F)[C@H]1C`, 200 to 201 °C.
